Results from PubChem BioAssay AID248 (DTP/NCI, 2004).
Inconclusive results and toxic doses are left out. Cut-off read from the data, not from the text of the source: active = T/C of 150% or more; inactive = T/C below 125%.

System: L1210 leukemia ip in BDF1 mice, survival T/C
Assay: NCI In Vivo Anticancer Drug Screen. Data for tumor model L1210 Leukemia (intraperitoneal) in B6D2F1 (BDF1) mice
Conditions: endpoint: mean survival time, higher = longer survival
In short: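 Mice bearing the transplanted tumor received compound or vehicle. Survival of the treated group was divided by that of the vehicle-treated control group to give the ratio.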

[1] = dose: 100.0 mg/kg/injection, schedule: Q04DX003 (ip), vehicle: saline
[2] = dose: 200.0 mg/kg/injection, schedule: Q04DX003 (ip), vehicle: saline
[3] = dose: 400.0 mg/kg/injection, schedule: Q04DX003 (ip), vehicle: saline
[4] = dose: 100.0 mg/kg/injection, schedule: Q04DX003 (ip), vehicle: saline with Tween-80
[5] = dose: 100.0 mg/kg/injection, schedule: Q01DX009 (ip), vehicle: saline
[6] = dose: 200.0 mg/kg/injection, schedule: Q01DX009 (ip), vehicle: saline
[7] = dose: 400.0 mg/kg/injection, schedule: Q01DX009 (ip), vehicle: saline
[8] = dose: 100.0 mg/kg/injection, schedule: Q04DX003 (ip), vehicle: Klucel (hydroxypropylcellulose) (HPC)
[9] = dose: 200.0 mg/kg/injection, schedule: Q04DX003 (ip), vehicle: Klucel (hydroxypropylcellulose) (HPC)
[10] = dose: 400.0 mg/kg/injection, schedule: Q04DX003 (ip), vehicle: Klucel (hydroxypropylcellulose) (HPC)
[11] = dose: 50.0 mg/kg/injection, schedule: Q01DX001 (ip), vehicle: saline
[12] = dose: 100.0 mg/kg/injection, schedule: Q01DX001 (ip), vehicle: saline
[13] = dose: 200.0 mg/kg/injection, schedule: Q01DX001 (ip), vehicle: saline
[14] = dose: 400.0 mg/kg/injection, schedule: Q01DX001 (ip), vehicle: saline

Measured: T/C

O=P(OCCCl)(OCCCl)OCCCl
inactive: [1] 102 % of control | [2] 102 % of control | [3] 103 % of control

N#CC(C#N)=Cc1ccnc2ccccc12
inactive: dose: 10.0 mg/kg/injection, schedule: Q01DX009 (ip), vehicle: saline with Tween-80 101 % of control | dose: 12.5 mg/kg/injection, schedule: Q04DX003 (ip), vehicle: saline with Tween-80 101 % of control | dose: 20.0 mg/kg/injection, schedule: Q01DX009 (ip), vehicle: saline with Tween-80 101 % of control | dose: 25.0 mg/kg/injection, schedule: Q04DX003 (ip), vehicle: saline with Tween-80 104 % of control | dose: 40.0 mg/kg/injection, schedule: Q01DX009 (ip), vehicle: saline with Tween-80 101 % of control | dose: 50.0 mg/kg/injection, schedule: Q04DX003 (ip), vehicle: saline with Tween-80 95 % of control | [4] 105 % of control

Cc1ccc([I+]c2ccc(C)c(C)c2C)c(C)c1C
inactive: dose: 2.5 mg/kg/injection, schedule: Q01DX001 (ip), vehicle: acetone 100 % of control | dose: 5.0 mg/kg/injection, schedule: Q01DX001 (ip), vehicle: acetone 102 % of control | dose: 10.0 mg/kg/injection, schedule: Q01DX001 (ip), vehicle: acetone 96 % of control | dose: 22.0 mg/kg/injection, schedule: Q01DX001 (ip), vehicle: acetone 103 % of control

NC(=O)NC(NC(N)=O)C(Cl)(Cl)Cl
inactive: [5] 101 % of control | [4] 100 % of control | [6] 102 % of control | dose: 200.0 mg/kg/injection, schedule: Q04DX003 (ip), vehicle: saline with Tween-80 100 % of control | [7] 102 % of control | dose: 400.0 mg/kg/injection, schedule: Q04DX003 (ip), vehicle: saline with Tween-80 100 % of control

CC(O)C(Cc1ccccc1)NC(=O)C(=O)NC(Cc1ccccc1)C(C)O (stereo unspecified)
inactive: [8] 95 % of control | [9] 90 % of control | [10] 92 % of control

C=CCCCCCCCCC(=O)N/N=C/c1cccc(OC)c1OC
inactive: dose: 100.0 mg/kg/injection, schedule: Q04DX002 (ip), vehicle: saline 95 % of control | dose: 200.0 mg/kg/injection, schedule: Q04DX002 (ip), vehicle: saline 103 % of control | dose: 400.0 mg/kg/injection, schedule: Q04DX002 (ip), vehicle: saline 106 % of control

Nc1ccc(OCc2ccc(S(=O)(=O)F)c(Cl)c2)c(Cl)c1
inactive: dose: 100.0 mg/kg/injection, schedule: Q01DX009 (ip), vehicle: other 91 % of control | [1] 93 % of control | dose: 200.0 mg/kg/injection, schedule: Q01DX009 (ip), vehicle: other 92 % of control | [2] 95 % of control | [3] 98 % of control

O=C1NCC2(O1)c1ccccc1-c1ccccc12
inactive: dose: 25.6 mg/kg/injection, schedule: Q04DX002 (ip), vehicle: saline with Tween-80 92 % of control | dose: 64.0 mg/kg/injection, schedule: Q04DX002 (ip), vehicle: saline with Tween-80 98 % of control | dose: 160.0 mg/kg/injection, schedule: Q04DX002 (ip), vehicle: saline with Tween-80 113 % of control

CCOC(=O)CNC(=O)C=[N+]=[N-]
inactive: dose: 350.0 mg/kg/injection, schedule: Q01DX Z (ip), vehicle: water 116 % of control | dose: 500.0 mg/kg/injection, schedule: Q01DX Z (ip), vehicle: water 91 % of control

O=C1C2C(C(=O)N1c1ccc(Br)cc1)C1(Cl)C(Cl)=C(Cl)C2(Cl)C1(Cl)Cl (stereo unspecified)
inactive: dose: 100.0 mg/kg/injection, schedule: Q01DX009 (ip), vehicle: Klucel (hydroxypropylcellulose) (HPC) 104 % of control | [8] 101 % of control | dose: 200.0 mg/kg/injection, schedule: Q01DX009 (ip), vehicle: Klucel (hydroxypropylcellulose) (HPC) 102 % of control | [9] 111 % of control | dose: 400.0 mg/kg/injection, schedule: Q01DX009 (ip), vehicle: Klucel (hydroxypropylcellulose) (HPC) 96 % of control | [10] 104 % of control

Cc1c2ccccc2nc(CNC2CCCCC2)[n+]1[O-]
inactive: dose: 12.5 mg/kg/injection, schedule: Q01DX001 (ip), vehicle: saline 98 % of control | dose: 25.0 mg/kg/injection, schedule: Q01DX001 (ip), vehicle: saline 97 % of control | [11] 90 % of control

CC(=O)CC(=O)OCc1ccccc1
inactive: [5] 93 % of control | [6] 92 % of control | [7] 95 % of control

CSc1ccc(C2NC(=O)NC2=O)cc1 (stereo unspecified)
inactive: [11] 102 % of control | [12] 100 % of control | [13] 96 % of control | [14] 102 % of control

CNC(=S)n1ncnc1N
inactive: dose: 25.0 mg/kg/injection, schedule: Q01DX009 (ip), vehicle: saline 102 % of control | dose: 50.0 mg/kg/injection, schedule: Q01DX009 (ip), vehicle: saline 114 % of control | [5] 109 % of control | [1] 104 % of control

CC[CH2][Sn]([CH2]CC)([CH2]CC)[CH2]CC
inactive: dose: 50.0 mg/kg/injection, schedule: Q01DX001 (ip), vehicle: carboxymethylcellulose (CMC) 95 % of control | dose: 100.0 mg/kg/injection, schedule: Q01DX001 (ip), vehicle: carboxymethylcellulose (CMC) 86 % of control

CCCCCCCCCCCSc1ccc2ccccc2c1
inactive: dose: 100.0 mg/kg/injection, schedule: Q01DX001 (ip), vehicle: Klucel (hydroxypropylcellulose) (HPC) 95 % of control | dose: 200.0 mg/kg/injection, schedule: Q01DX001 (ip), vehicle: Klucel (hydroxypropylcellulose) (HPC) 90 % of control

CNc1ccn(C2CCCO2)c(=O)n1 (stereo unspecified)
inactive: [12] 104 % of control | [13] 104 % of control | [14] 104 % of control

CC(=O)CC(=O)C(F)(F)F.[O]=[U]=[O]
inactive: dose: 0.37 mg/kg/injection, schedule: Q01DX009 (ip), vehicle: gum acacia 99 % of control | dose: 0.75 mg/kg/injection, schedule: Q01DX009 (ip), vehicle: gum acacia 101 % of control | dose: 1.5 mg/kg/injection, schedule: Q01DX009 (ip), vehicle: gum acacia 101 % of control | dose: 6.25 mg/kg/injection, schedule: Q01DX005 (ip), vehicle: gum acacia 99 % of control | dose: 6.25 mg/kg/injection, schedule: Q01DX009 (ip), vehicle: gum acacia 98 % of control | dose: 12.5 mg/kg/injection, schedule: Q01DX005 (ip), vehicle: gum acacia 86 % of control | dose: 12.5 mg/kg/injection, schedule: Q04DX002 (ip), vehicle: gum acacia 104 % of control | dose: 25.0 mg/kg/injection, schedule: Q04DX002 (ip), vehicle: gum acacia 87 % of control
